Measured values taken from patent US4175125A, “Method for treating methicillin resistant staphylococcus aureus” (Eli Lilly and Company, priority 1978, dated 1979).
Counter-ions that a name gives are not always drawn. Like-named read-outs stand apart in the source and are kept apart here.

System: Staphylococcus aureus cultures
Assay: Modified Bauer-Kirby Disc Susceptibility Test (Example 11)
Assay type: cell-based
Parameters: zone of inhibition: dose or concentration left out as unconfirmed
Conditions: for zone of inhibition: Staphylococcus aureus; for Change 37°-30°: 30 mg Disc
Method: This example exemplifies the antibiotic activity of 7-[2'-(3"-chloro-4"-fluorophenylthio)acetamido]cephalosporanic acid, a water soluble compound, described in Example 8, against various Staphylococcus aureus cultures, in a modified Bauer-Kirby Disc Susceptibility Test (Bauer, A. W., W. M. M. Kirby, J. C. Sherris, and M. Turck, 1966, Amer. J. Clin. Pathol. 45:493-496). In this test the cultures were incubated at both 37° C. or 30° C. […] 16, 1968, the heterogeneity of methicilllin-resistant S. aureus is manifested by incubation at 30° C.

CC(=O)OCC1=C(C(=O)O)N2C(=O)C(NC(=O)CSc3ccc(F)c(Cl)c3)C2SC1 (stereo not drawn) [Example 8, 7-(3'-chloro-4-fluorophenylthioacetamido)cephalosporanic acid, sodium salt]
zone of inhibition (culture 3055 (penicillin sensitive), 30°, read-out: disc susceptibility (zone) at 30°): > 35 mm | zone of inhibition (culture 3055 (penicillin sensitive), 37°, read-out: disc susceptibility (zone) at 37°): > 35 mm | zone of inhibition (culture 3074 (methicillin sensitive, penicillinase producing), 30°, read-out: disc susceptibility (zone) at 30°): 36 mm | zone of inhibition (culture 3074 (methicillin sensitive, penicillinase producing), 37°, read-out: disc susceptibility (zone) at 37°): 36 mm | zone of inhibition (culture 3125 (methicillin resistant), 30°, read-out: disc susceptibility (zone) at 30°): 36 mm | zone of inhibition (culture 3125 (methicillin resistant), 37°, read-out: disc susceptibility (zone) at 37°): 33.8 mm | zone of inhibition (culture 3130 (methicillin resistant), 30°, read-out: disc susceptibility (zone) at 30°): 31 mm | zone of inhibition (culture 3130 (methicillin resistant), 37°, read-out: disc susceptibility (zone) at 37°): 33.2 mm | zone of inhibition (culture 3131 (methicillin resistant), 30°, read-out: disc susceptibility (zone) at 30°): 29 mm | zone of inhibition (culture 3131 (methicillin resistant), 37°, read-out: disc susceptibility (zone) at 37°): 26.6 mm | zone of inhibition (culture 3132 (methicillin resistant), 30°, read-out: disc susceptibility (zone) at 30°): 28 mm | zone of inhibition (culture 3132 (methicillin resistant), 37°, read-out: disc susceptibility (zone) at 37°): 29.4 mm | zone of inhibition (culture 3133 (methicillin resistant), 30°, read-out: disc susceptibility (zone) at 30°): 24.8 mm | zone of inhibition (culture 3133 (methicillin resistant), 37°, read-out: disc susceptibility (zone) at 37°): 27.6 mm | zone of inhibition (culture 3134 (methicillin resistant), 30°, read-out: disc susceptibility (zone) at 30°): 27.8 mm | zone of inhibition (culture 3134 (methicillin resistant), 37°, read-out: disc susceptibility (zone) at 37°): 28 mm | zone of inhibition (culture 3135 (methicillin resistant), 30°, read-out: disc susceptibility (zone) at 30°): 26.2 mm | zone of inhibition (culture 3135 (methicillin resistant), 37°, read-out: disc susceptibility (zone) at 37°): 28.2 mm | zone of inhibition (culture 3136 (methicillin resistant), 30°, read-out: disc susceptibility (zone) at 30°): 31 mm | zone of inhibition (culture 3136 (methicillin resistant), 37°, read-out: disc susceptibility (zone) at 37°): 35 mm | zone of inhibition (culture 3137 (methicillin resistant), 30°, read-out: disc susceptibility (zone) at 30°): 22.1 mm | zone of inhibition (culture 3137 (methicillin resistant), 37°, read-out: disc susceptibility (zone) at 37°): 24.4 mm | zone of inhibition (culture 3138 (methicillin resistant), 30°, read-out: disc susceptibility (zone) at 30°): 25.2 mm | zone of inhibition (culture 3138 (methicillin resistant), 37°, read-out: disc susceptibility (zone) at 37°): 25.6 mm | zone of inhibition (culture 3139 (methicillin resistant), 30°, read-out: disc susceptibility (zone) at 30°): 31.6 mm | zone of inhibition (culture 3139 (methicillin resistant), 37°, read-out: disc susceptibility (zone) at 37°): 34 mm | zone of inhibition (culture 3140 (methicillin resistant), 30°, read-out: disc susceptibility (zone) at 30°): 26.4 mm | zone of inhibition (culture 3140 (methicillin resistant), 37°, read-out: disc susceptibility (zone) at 37°): 28.4 mm | zone of inhibition (culture H232 (methicillin sensitive, penicillinase producing), 30°, read-out: disc susceptibility (zone) at 30°): 34.3 mm | zone of inhibition (culture H232 (methicillin sensitive, penicillinase producing), 37°, read-out: disc susceptibility (zone) at 37°): 33.4 mm | Change 37°-30° (culture 3074): 0 mm | Change 37°-30° (culture 3125): +2.2 mm | Change 37°-30° (culture 3130): -2.2 mm | Change 37°-30° (culture 3131): +2.4 mm | Change 37°-30° (culture 3132): -1.4 mm | Change 37°-30° (culture 3133): -2.8 mm | Change 37°-30° (culture 3134): -0.2 mm | Change 37°-30° (culture 3135): -2.0 mm | Change 37°-30° (culture 3136): -4.0 mm | Change 37°-30° (culture 3137): -2.3 mm | Change 37°-30° (culture 3138): -0.4 mm | Change 37°-30° (culture 3139): -2.4 mm | Change 37°-30° (culture 3140): -2.0 mm | Change 37°-30° (culture H232): +0.9 mm | effectiveness vs cephalothin in disc susceptibility test (incubation at 37° C. or 30° C.): more effective than cephalothin
